Values after ≈ are worked out from the molar mass of the structure shown. Active and inactive are the calls of the source. The rule behind the calls is not given here.
How the values were obtained:
Cell membrane [1] = assay: Induction of cell membrane disruption in Staphylococcus aureus ATCC 29213 assessed as appearance of wrinkled cell at 8 microg/ml incubated for 2 hrs by scanning electron microscopic analysis; assay type: subcellular; details: dose 8.0 µg/ml
Bacillus subtilis [2] = assay: Antibacterial activity against Bacillus subtilis ATCC 6633 assessed as reduction in bacterial growth incubated for 24 hrs by Mueller-Hinton broth based assay; assay type: functional
[3] = system: Staphylococcus epidermidis; assay: Potency index, ratio of chloramphenicol MIC to test compound MIC for antibacterial activity against Staphylococcus epidermidis ATCC 14990 assessed as inhibition of bacterial growth incubated for 24 hrs by Mueller-Hinton broth based assay; assay type: functional
Staphylococcus aureus [4] = assay: Bactericidal activity against Staphylococcus aureus ATCC 29213 assessed as reduction in bacterial growth at 0.5 to 8 times MIC measured at 24 hrs by time-kill assay; assay type: functional, organism-based
Staphylococcus aureus [5] = assay: Potency index, ratio of chloramphenicol MIC to test compound MIC for antimicrobial activity against Staphylococcus aureus ATCC 29213 assessed as reduction in bacterial growth incubated for 24 hrs by Mueller-Hinton broth based assay; assay type: functional
Staphylococcus aureus [6] = assay: Antibacterial activity against methicillin resistant-Staphylococcus aureus […] assessed as inhibition of bacterial growth incubated for 18 hrs by CLSI based microdilution method; assay type: functional
Cell membrane [7] = assay: Induction of cell membrane disruption in Staphylococcus aureus ATCC 29213 assessed as appearance of uneven cell at 8 microg/ml incubated for 2 hrs by scanning electron microscopic analysis; assay type: subcellular; details: dose 8.0 µg/ml
Bacillus subtilis [8] = assay: Potency index, ratio of chloramphenicol MIC to test compound MIC for antibacterial activity against Bacillus subtilis ATCC 6633 assessed as reduction in bacterial growth incubated for 24 hrs by Mueller-Hinton broth based assay; assay type: functional
Cell membrane [9] = assay: Induction of cell membrane disruption in Staphylococcus aureus ATCC 29213 assessed as increase in fluorescence intensity at 8 microg/ml incubated for 2 hrs by scanning electron microscopic analysis; assay type: subcellular; details: dose 8.0 µg/ml
Enterococcus faecalis [10] = assay: Antibacterial activity against Enterococcus faecalis ATCC 29212 assessed as reduction in bacterial growth incubated for 24 hrs by Mueller-Hinton broth based assay; assay type: functional
Cell membrane [11] = assay: Disruption of membrane integrity in Staphylococcus aureus ATCC 29213 assessed as increase in red fluorescence at 8 microg/ml incubated for 2 hrs by EthD-III dye based fluorescence microscopic analysis; assay type: subcellular; details: dose 8.0 µg/ml
Cell membrane [12] = assay: Induction of cell membrane disruption in Staphylococcus aureus ATCC 29213 assessed as appearance of ruptured cell at 8 microg/ml incubated for 2 hrs by scanning electron microscopic analysis; assay type: subcellular; details: dose 8.0 µg/ml
Staphylococcus aureus [13] = assay: Bactericidal activity against Staphylococcus aureus ATCC 29213 assessed as reduction in bacterial growth at 8 microg/ml measured immediately by time-kill assay; assay type: functional, organism-based; details: dose 8.0 µg/ml
Staphylococcus aureus [14] = assay: Antibacterial activity against Staphylococcus aureus ATCC 29213 assessed as inhibition of bacterial growth incubated for 18 hrs by CLSI based microdilution method; assay type: functional
Staphylococcus aureus [15] = assay: Antimicrobial activity against Staphylococcus aureus ATCC 29213 assessed as reduction in bacterial growth incubated for 24 hrs by Mueller-Hinton broth based assay; assay type: functional
Staphylococcus aureus [16] = assay: Bactericidal activity against Staphylococcus aureus ATCC 29213 assessed as reduction in bacterial growth at 8 times MIC measured at 8 hrs by time-kill assay; assay type: functional
Cell membrane [17] = assay: Disruption of membrane integrity in Staphylococcus aureus ATCC 29213 assessed as increase in green fluorescence at 8 microg/ml incubated for 2 hrs by nuc-green dye based fluorescence microscopic analysis; assay type: subcellular; details: dose 8.0 µg/ml
Staphylococcus aureus [18] = assay: Bactericidal activity against Staphylococcus aureus ATCC 29213 assessed as inhibition of bacterial growth measured at 8 hrs by time-kill assay; assay type: functional, organism-based
Cell membrane [19] = assay: Induction of cell membrane disruption in Staphylococcus aureus ATCC 29213 assessed as appearance of round cell at 8 microg/ml incubated for 2 hrs by scanning electron microscopic analysis; assay type: subcellular; details: dose 8.0 µg/ml
[20] = system: Staphylococcus epidermidis; assay: Antibacterial activity against Staphylococcus epidermidis ATCC 14990 assessed as inhibition of bacterial growth incubated for 24 hrs by Mueller-Hinton broth based assay; assay type: functional
Enterococcus faecalis [21] = assay: Potency index, ratio of chloramphenicol MIC to test compound MIC for antibacterial activity against Enterococcus faecalis ATCC 29212 assessed as reduction in bacterial growth incubated for 24 hrs by Mueller-Hinton broth based assay; assay type: functional
Staphylococcus aureus [22] = assay: Bactericidal activity against Staphylococcus aureus ATCC 29213 assessed as reduction in bacterial growth at 8 microg/ml measured at 2 hrs by time-kill assay; assay type: functional, organism-based; details: dose 8.0 µg/ml

Structure (SMILES) | MIC (Bacillus subtilis [2]) | MIC (Staphylococcus aureus [6]) | MIC (Enterococcus faecalis [10]) | MIC (Staphylococcus aureus [14]) | MIC (Staphylococcus aureus [15]) | Activity (Staphylococcus aureus [16]) | MIC [20] | further results
CC(C)=CCc1c(-c2ccc3c(c2O)C=CC(C)(C)O3)oc2cc(O)cc(O)c2c1=O | 1 µg/mL (≈ 2.38 µM) | 4 µg/mL (≈ 9.51 µM) | 1 µg/mL (≈ 2.38 µM) | 4 µg/mL (≈ 9.51 µM) | 1 µg/mL (≈ 2.38 µM) | 2 log10CFU/ml | 1 µg/mL (≈ 2.38 µM) | Activity (Cell membrane [1]): Active; Ratio [3]: 8; Activity (Staphylococcus aureus [4]): inactive; Ratio (Staphylococcus aureus [5]): 8; Activity (Cell membrane [7]): Active; Ratio (Bacillus subtilis [8]): 8; Activity (Cell membrane [9]): Active; Activity (Cell membrane [11]): Active; Activity (Cell membrane [12]): Active; Activity (Staphylococcus aureus [13]): Active; Activity (Cell membrane [17]): Active; Activity (Staphylococcus aureus [18]): Dose-Dependent Effect; Activity (Cell membrane [19]): Active; Ratio (Enterococcus faecalis [21]): 8
CC(C)=CCc1c(-c2ccc(O)c3c2OC(C)(C)C=C3)oc2cc(O)cc(O)c2c1=O [KUWANON A] | 4 µg/mL (≈ 9.51 µM) | 8 µg/mL (≈ 19 µM) | 8 µg/mL (≈ 19 µM) | 8 µg/mL (≈ 19 µM) | 4 µg/mL (≈ 9.51 µM) |  | 2 µg/mL (≈ 4.76 µM) | 
CC1(C)S[C@@H]2[C@H](NC(=O)[C@H](N)c3ccccc3)C(=O)N2[C@H]1C(=O)O [AMPICILLIN] | 8 µg/mL (≈ 22.9 µM) |  | 0.5 µg/mL (≈ 1.43 µM) |  | 0.5 µg/mL (≈ 1.43 µM) | 5 log10CFU/ml | 16 µg/mL (≈ 45.8 µM) | Activity (Staphylococcus aureus [22]): inactive
O=C(N[C@H](CO)[C@H](O)c1ccc([N+](=O)[O-])cc1)C(Cl)Cl [CHLORAMPHENICOL] | 8 µg/mL (≈ 24.8 µM) |  | 8 µg/mL (≈ 24.8 µM) |  | 16 µg/mL (≈ 49.5 µM) |  | 8 µg/mL (≈ 24.8 µM) | 

Source: ChEMBL document CHEMBL5360627, “Total Synthesis of Kuwanons A and B and Discovery of Their Antibacterial Mechanism” (2023)
